Data on 21 molecules can be found in patent US20260116868A1 (Arcus Biosciences, Inc., priority 2023, published 2026).

One test deals with Jurkat cells. Kind of test: IL-2 secretion assay in Jurkat cells activated with CD3/CD28 T Cell Activator. The test is classed as cell-based. The conditions noted are these: Homo sapiens, 24 h, read-out: IL-2 Secretion (EC50). The method, boiled down: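 Jurkat cells in Opti-MEM were preincubated 1 h at 37° C with compound (final 10 μM to 300 pM, 16-point 1:2 dilution), then activated with human CD3/CD28 T Cell Activator for 24 h at 37° C. Supernatant IL-2 measured by AlphaLISA; EC50 from 4-parameter logistic fit.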

For the next test, the target named is T1, Cbl-b (Homo sapiens, UniProt Q13191).
T1 construct: biotin (biotinylated protein)
T1 sequence (Q13191 whole entry, species assumed): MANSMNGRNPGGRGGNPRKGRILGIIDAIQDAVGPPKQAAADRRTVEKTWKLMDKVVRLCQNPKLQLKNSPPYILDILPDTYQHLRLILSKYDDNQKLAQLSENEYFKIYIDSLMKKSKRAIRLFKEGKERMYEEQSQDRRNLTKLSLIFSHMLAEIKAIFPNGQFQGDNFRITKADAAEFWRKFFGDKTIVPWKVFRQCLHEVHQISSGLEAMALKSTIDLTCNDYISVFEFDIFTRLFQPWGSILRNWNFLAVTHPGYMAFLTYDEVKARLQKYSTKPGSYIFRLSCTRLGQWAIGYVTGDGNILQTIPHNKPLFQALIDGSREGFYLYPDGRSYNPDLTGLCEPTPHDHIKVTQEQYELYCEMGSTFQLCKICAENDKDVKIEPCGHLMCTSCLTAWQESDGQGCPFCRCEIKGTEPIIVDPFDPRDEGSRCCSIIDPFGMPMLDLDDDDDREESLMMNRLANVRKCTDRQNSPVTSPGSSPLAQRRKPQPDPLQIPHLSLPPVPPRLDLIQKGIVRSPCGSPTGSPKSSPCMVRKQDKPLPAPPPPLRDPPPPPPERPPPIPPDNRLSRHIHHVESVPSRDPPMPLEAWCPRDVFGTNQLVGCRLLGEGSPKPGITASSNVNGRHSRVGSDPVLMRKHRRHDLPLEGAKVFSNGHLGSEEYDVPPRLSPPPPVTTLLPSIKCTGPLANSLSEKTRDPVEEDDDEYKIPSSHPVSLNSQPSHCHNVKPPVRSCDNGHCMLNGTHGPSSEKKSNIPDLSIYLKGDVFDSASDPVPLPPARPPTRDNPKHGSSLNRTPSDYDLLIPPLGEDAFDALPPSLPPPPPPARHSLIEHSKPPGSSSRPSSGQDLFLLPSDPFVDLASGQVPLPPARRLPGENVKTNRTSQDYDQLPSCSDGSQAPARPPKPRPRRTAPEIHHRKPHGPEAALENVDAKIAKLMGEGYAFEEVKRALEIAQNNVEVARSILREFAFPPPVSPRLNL
The test can be described thus: Cbl-b probe displacement HTRF binding assay. The conditions noted are these: 0.4 nM Cbl-b, 150 nM BODIPY probe. The method, boiled down: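 Compound competes with BODIPY probe (150 nM) for biotinylated Cbl-b (0.4 nM) in HEPES/NaCl/Triton/TCEP/BSA buffer; 60 min preincubation, 15 min with probe, room temperature. Tb-streptavidin HTRF read; % displacement vs DMSO and no-protein controls, IC50 from four-parameter fit.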
On the technique in general: TR-FRET usually uses a lanthanide donor and a delayed reading to cut background.

Setting [1] is: Jurkat cells, CD3/CD28 T Cell Activator, IL-2 AlphaLISA.

Where two headings read alike, the source gives them in different places.

The EC50 is the concentration that produces a half-maximal response. Broadly, the IC50 is the midpoint of a concentration-inhibition curve. Turning to `CN1C[C@@H]2C[C@H]1CN2Cc1cc(C(=O)Nc2cc(-c3ccc(C#N)cc3-c3nccn3C)cc(C3CC3)n2)c(=O)n(C2CC2)c1` [Example 38, N-{4-[4-cyano-2-(1-methyl-2-imidazolyl)phenyl]-6-cyclopropyl-2-pyridyl}-5-({(1S,4S)-5-methyl-2,5-diazabicyclo[2.2.1]hept-2-yl}methyl)-1-cyclopropyl-2-oxo-1,2-dihydronicotinamide], the EC50 in the test with Jurkat cells (setting [1]) was 1000 to 5000 nM. In addition, on Cbl-b, the IC50 lay in the range of 100 to 1000 nM.

Regarding `Cn1ccnc1-c1cc(C#N)ccc1-c1cc(NC(=O)c2cc(CNC3(C)CCC3)cn(C3CC3)c2=O)nc(C2CC2)c1` [Example 39, N-{4-[4-cyano-2-(1-methyl-2-imidazolyl)phenyl]-6-cyclopropyl-2-pyridyl}-1-cyclopropyl-5-[(1-methylcyclobutylamino)methyl]-2-oxo-1,2-dihydronicotinamide], the EC50 in the test with Jurkat cells (setting [1]) is below 100 nM. Moreover, the half-inhibitory concentration (IC50) at Cbl-b was below 100 nM.

Consider `Cn1ccnc1-c1cc(C#N)ccc1-c1cc(NC(=O)c2cc(CNCCOC(F)(F)F)cn(C3CC3)c2=O)nc(C2CC2)c1` [Example 40, N-{4-[4-cyano-2-(1-methyl-2-imidazolyl)phenyl]-6-cyclopropyl-2-pyridyl}-1-cyclopropyl-2-oxo-5-[(2-trifluoromethoxyethylamino)methyl]-1,2-dihydronicotinamide], for which the concentration giving a half-maximal response (EC50) in the test on Jurkat cells (setting [1]) was in the range of 100 to 1000 nM. On Cbl-b, this molecule showed an IC50 below 100 nM.

With `Cn1ccnc1-c1cc(C#N)ccc1-c1cc(NC(=O)c2cc(CN3CCC4(CC4)C3)cn(C3CC3)c2=O)nc(C2CC2)c1` [Example 41, N-{4-[4-cyano-2-(1-methyl-2-imidazolyl)phenyl]-6-cyclopropyl-2-pyridyl}-5-{(5-aza-5-spiro[2.4]heptyl)methyl}-1-cyclopropyl-2-oxo-1,2-dihydronicotinamide], the EC50 in the test with Jurkat cells (setting [1]) was 100 to 1000 nM. In addition, the IC50 at Cbl-b is below 100 nM.

Consider `COCCNCc1cc(C(=O)Nc2cc(-c3ccc(C#N)cc3-c3nccn3C)cc(C3CC3)n2)c(=O)n(C2CC2)c1` [Example 42, N-{4-[4-cyano-2-(1-methyl-2-imidazolyl)phenyl]-6-cyclopropyl-2-pyridyl}-1-cyclopropyl-5-[(2-methoxyethylamino)methyl]-2-oxo-1,2-dihydronicotinamide], for which the EC50 in the test on Jurkat cells (setting [1]) was below 100 nM. At Cbl-b, this molecule came in with an IC50 below 100 nM.

Regarding `C[C@H]1CCCN(Cc2cc(C(=O)Nc3cc(-c4ccc(C#N)cc4-c4nccn4C)cc(C4CC4)n3)c(=O)n(C3CC3)c2)C1` [Example 43, N-{4-[4-cyano-2-(1-methyl-2-imidazolyl)phenyl]-6-cyclopropyl-2-pyridyl}-5-{[(S)-3-methyl-1-piperidyl]methyl}-1-cyclopropyl-2-oxo-1,2-dihydronicotinamide], the EC50 with Jurkat cells (setting [1]) is below 100 nM. The molecule further registered an IC50 at Cbl-b below 100 nM.

In the case of `C[C@H]1CCCN(Cc2cc(C(=O)Nc3cc(-c4ccc(C(N)=O)cc4-c4nccn4C)cc(C4CC4)n3)c(=O)n(C3CC3)c2)C1` [Example 44, N-{4-[4-carbamoyl-2-(1-methyl-2-imidazolyl)phenyl]-6-cyclopropyl-2-pyridyl}-5-{[(S)-3-methyl-1-piperidyl]methyl}-1-cyclopropyl-2-oxo-1,2-dihydronicotinamide], the EC50 in the test on Jurkat cells (setting [1]) is 1000 to 5000 nM. The same molecule displayed a half-inhibitory concentration (IC50) at Cbl-b of 100 to 1000 nM.

On to `[2H]C([2H])([2H])n1ccnc1-c1cc(C#N)ccc1-c1cc(NC(=O)c2cc(CNCCOC)cn(C3CC3)c2=O)nc(C2CC2)c1` [Example 45, N-[4-(4-cyano-2-{1-[(^2H3)methyl]-2-imidazolyl}phenyl)-6-cyclopropyl-2-pyridyl]-1-cyclopropyl-5-[(2-methoxyethylamino)methyl]-2-oxo-1,2-dihydronicotinamide], for which the EC50 in the test with Jurkat cells (setting [1]) is below 100 nM. At Cbl-b, this molecule yielded a concentration for half-maximal inhibition (IC50) below 100 nM.

As to `COCCNCc1cc(C(=O)Nc2cc(-c3ccc(C#N)cc3-c3nc(C(F)(F)F)cn3C)cc(C3CC3)n2)c(=O)n(C2CC2)c1` [Example 46, N-(4-{4-cyano-2-[1-methyl-4-(trifluoromethyl)-2-imidazolyl]phenyl}-6-cyclopropyl-2-pyridyl)-1-cyclopropyl-5-[(2-methoxyethylamino)methyl]-2-oxo-1,2-dihydronicotinamide], the EC50 in the test on Jurkat cells (setting [1]) was 1000 to 5000 nM. In addition, the concentration for half-maximal inhibition (IC50) on Cbl-b lay in the range of 100 to 1000 nM.

On to `C[C@H]1CCCN(Cc2cc(C(=O)Nc3cc(-c4ccc(C#N)cc4-c4nc(C(F)(F)F)cn4C)cc(C4CC4)n3)c(=O)n(C3CC3)c2)C1` [Example 47, N-(4-{4-cyano-2-[1-methyl-4-(trifluoromethyl)-2-imidazolyl]phenyl}-6-cyclopropyl-2-pyridyl)-5-{[(S)-3-methyl-1-piperidyl]methyl}-1-cyclopropyl-2-oxo-1,2-dihydronicotinamide], for which the EC50 in the test with Jurkat cells (setting [1]) lay within 1000 to 5000 nM. For the same molecule, the concentration for half-maximal inhibition (IC50) on Cbl-b lay within 100 to 1000 nM.

Take `COCCNCc1cc(C(=O)Nc2cc(-c3ccc(C#N)cc3-c3nc(C#N)cn3C)cc(C3CC3)n2)c(=O)n(C2CC2)c1` [Example 48, N-{4-[4-cyano-2-(4-cyano-1-methyl-2-imidazolyl)phenyl]-6-cyclopropyl-2-pyridyl}-1-cyclopropyl-5-[(2-methoxyethylamino)methyl]-2-oxo-1,2-dihydronicotinamide]: the 50% effective concentration (EC50) in the test with Jurkat cells (setting [1]) was below 100 nM. At Cbl-b, this molecule displayed an IC50 below 100 nM.

On to `Cn1cc(C#N)nc1-c1cc(C#N)ccc1-c1cc(NC(=O)c2cc(CNC3(C)CCC3)cn(C3CC3)c2=O)nc(C2CC2)c1` [Example 49, N-{4-[4-cyano-2-(4-cyano-1-methyl-2-imidazolyl)phenyl]-6-cyclopropyl-2-pyridyl}-1-cyclopropyl-5-[(1-methylcyclobutylamino)methyl]-2-oxo-1,2-dihydronicotinamide], for which, in the test with Jurkat cells (setting [1]), the EC50 is below 100 nM. Moreover, at Cbl-b, the 50% inhibitory concentration (IC50) was below 100 nM.

Turning to `COCCNCc1cc(C(=O)Nc2cc(-c3ccc(C#N)cc3-c3ocnc3C)cc(C3CC3)n2)c(=O)n(C2CC2)c1` [Example 52, N-{4-[4-cyano-2-(4-methyl-1,3-oxazol-5-yl)phenyl]-6-cyclopropyl-2-pyridyl}-1-cyclopropyl-5-[(2-methoxyethylamino)methyl]-2-oxo-1,2-dihydronicotinamide], in the test with Jurkat cells (setting [1]), the EC50 was above 5000 nM. The half-inhibitory concentration (IC50) at Cbl-b is 1000 to 5000 nM.

On to `Cc1ocnc1-c1cc(C#N)ccc1-c1cc(NC(=O)c2cc(CNC3(C)CCC3)cn(C3CC3)c2=O)nc(C2CC2)c1` [Example 53, N-{4-[4-cyano-2-(5-methyl-1,3-oxazol-4-yl)phenyl]-6-cyclopropyl-2-pyridyl}-1-cyclopropyl-5-[(1-methylcyclobutylamino)methyl]-2-oxo-1,2-dihydronicotinamide], for which, in the test on Jurkat cells (setting [1]), the concentration for a half-maximal effect (EC50) fell in the range of 100 to 1000 nM. Moreover, at Cbl-b, the IC50 was below 100 nM.

As to `COCCNCc1cc(C(=O)Nc2cc(-c3ccc(C#N)cc3-c3[nH]c(C)nc3C)cc(C3CC3)n2)c(=O)n(C2CC2)c1` [Example 54, N-{4-[4-cyano-2-(2,4-dimethyl-5-imidazolyl)phenyl]-6-cyclopropyl-2-pyridyl}-1-cyclopropyl-5-[(2-methoxyethylamino)methyl]-2-oxo-1,2-dihydronicotinamide], in the test on Jurkat cells (Jurkat), the EC50 lay within 100 to 1000 nM. Besides, on Cbl-b, the half-inhibitory concentration (IC50) was below 100 nM.

Turning to `Cn1cnnc1-c1cc(F)ccc1-c1cc(NC(=O)c2cc(CNC3(C)CCC3)cn(CC3CC3)c2=O)nc(C2CC2)c1` [Example 55], the concentration giving a half-maximal response (EC50) in the test with Jurkat cells (setting [1]) was below 100 nM. In addition, the IC50 on Cbl-b is below 100 nM.

With `C[C@H]1CCCN(Cc2cc(C(=O)Nc3cc(-c4ccc(F)cc4-c4nncn4C)cc(C4CC4)n3)c(=O)n(CC3CC3)c2)C1` [Example 56, N-[6-cyclopropyl-4-[4-fluoro-2-(4-methyl-1,2,4-triazol-3-yl)phenyl]pyridin-2-yl]-1-(cyclopropylmethyl)-5-[[(3S)-3-methylpiperidin-1-yl]methyl]-2-oxopyridine-3-carboxamide], the EC50 in the test with Jurkat cells (setting [1]) was below 100 nM. The same molecule displayed an IC50 on Cbl-b below 100 nM.

As for `CC(C)n1cc(CN2CCC[C@H](C)C2)cc(C(=O)Nc2cc(-c3ccc(F)cc3-c3nncn3C)cc(C3CC3)n2)c1=O` [Example 57, N-[6-cyclopropyl-4-[4-fluoro-2-(4-methyl-1,2,4-triazol-3-yl)phenyl]pyridin-2-yl]-5-[[(3S)-3-methylpiperidin-1-yl]methyl]-2-oxo-1-propan-2-ylpyridine-3-carboxamide], the EC50 with Jurkat cells (setting [1]) is below 100 nM. At Cbl-b, this molecule showed an IC50 below 100 nM.

Turning to `C[C@H]1CCCN(Cc2cc(C(=O)Nc3cc(-c4ccc(F)cc4-c4nncn4C)cc(C4CC4)n3)c(=O)n(CC(F)(F)F)c2)C1` [Example 58, N-[6-cyclopropyl-4-[4-fluoro-2-(4-methyl-1,2,4-triazol-3-yl)phenyl]pyridin-2-yl]-5-[[(3S)-3-methylpiperidin-1-yl]methyl]-2-oxo-1-(2,2,2-trifluoroethyl)pyridine-3-carboxamide], the 50% effective concentration (EC50) with Jurkat cells (setting [1]) is below 100 nM. Further, the IC50 on Cbl-b was below 100 nM.

For `C[C@H]1CCCN(Cc2cc(C(=O)Nc3cc(-c4ccc(F)cc4-c4nncn4C)cc(C4CC4)n3)c(=O)n(CCO)c2)C1` [Example 59, N-[6-cyclopropyl-4-[4-fluoro-2-(4-methyl-1,2,4-triazol-3-yl)phenyl]pyridin-2-yl]-1-(2-hydroxyethyl)-5-[[(3S)-3-methylpiperidin-1-yl]methyl]-2-oxopyridine-3-carboxamide], the 50% effective concentration (EC50) in the test with Jurkat cells (setting [1]) was below 100 nM. For the same molecule, the half-inhibitory concentration (IC50) on Cbl-b is below 100 nM.

Turning to `C[C@H]1CCCN(Cc2cc(C(=O)Nc3cc(-c4ccc(F)cc4-c4nncn4C)cc(C4CC4)n3)c(=O)n(CC3CCOCC3)c2)C1` [Example 60, N-[6-cyclopropyl-4-[4-fluoro-2-(4-methyl-1,2,4-triazol-3-yl)phenyl]pyridin-2-yl]-5-[[(3S)-3-methylpiperidin-1-yl]methyl]-1-(oxan-4-ylmethyl)-2-oxopyridine-3-carboxamide], the EC50 in the test on Jurkat cells (setting [1]) is 100 to 1000 nM. This molecule also came in with an IC50 at Cbl-b below 100 nM.
